biological target: human AD brain homogenates (Homo sapiens, UniProt P05067); assay: Tissue homogenate binding assay (competition with [3H]-DMAB); conditions: human AD brain (frontal cortex) tissue homogenate; radioligand [3H]-DMAB 1.5 nM; 90 minutes at room temperature
Experimental: Homogenates from AD and non-AD human brain samples were assessed for their immunoreactivity to anti-Aβ antibody 6E10. The highest and lowest levels of 6E10 immunoreactivity were chosen for the AD group and the non-AD control group, respectively. Candidate Aβ compounds were initially selected based on their structural similarity to published amyloid ligands and then for high affinity in competing with [^3H]PIB binding to AD brain homogenates. These compounds were radiolabeled with [^3H] and tested for binding affinity to human AD brain homogenates as well as binding to human non-AD brain homogenates. [^3H]-DMAB (see structure below) was selected based from these candidates based on its binding affinity for human AD brain homogenates, and minimal binding to non-AD control homogenates. A low fraction of non-displaceable binding was also an important criterion.
PET radiotracer candidate compounds were then selected based on their high affinity competition with [^3H]-DMAB in binding to AD brain homogenates. These PET radiotracer candidate compounds were tested to determine if they were effective PgP substrates. Those PET radiotracer candidate compounds with little PgP substrate activity were radiolabeled with [^3H] or [^18F] and tested for binding affinity to human AD brain homogenates as well as binding to human non-AD brain homogenates and in autoradiographic studies using human AD and non-AD brain slices. Candidate radioligands were selected based on their strong binding affinity for human AD brain homogenates, and minimal binding to non-AD control homogenates. A low fraction of non-displaceable binding was also an important criterion. Minimization of white matter binding was an important criterion.
Postmortem frozen human brain samples from donors with clinical diagnosis of Alzheimer's diseases (AD) or normal control subjects (non-AD) were purchased from Analytical Biological Services Inc., at 701-4 Cornell Business Park, Wilmington, Del. […]
[^3H]-DMAB was synthesized at a specific activity of ˜80 Ci/mmol. […] Total binding was defined in the absence of competing compound, and non-displaceable binding was determined in the presence of 1 μM unlabeled self block. […] Incubation was carried out at room temperature (25° C.) for 90 minutes, and then the assay samples were filtered onto GF/C filters using Skatron 12 well harvester, washing on setting 5−5−5 ((˜3×2 ml) ice cold buffer (PBS, pH 7.4). GF/C filter papers for the Skatron harvester were pre-soaked in 0.1% BSA for 1 hour at room temperature before use. Filters were punched into scintillation vials and counted in 2 mL Ultima Gold on Perkin Elmer Tri-Carb 2900TR for 1 minute. The data analysis was done with Prism software. All assays were done in triplicate, and in the laboratory designated for studies using human tissues.

Chain of human AD brain homogenates (P05067 672-711 limits assumed): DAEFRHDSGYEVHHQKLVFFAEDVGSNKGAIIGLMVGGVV

Row | Compound | IC50 [nM]
1 | COc1ccc2[nH]c(-c3ccc(-n4cncn4)nc3)cc2c1 | 10
2 | CNc1ccc(-c2cc3ccc(Cl)cc3[nH]2)cn1 | 40
3 | N#Cc1ccc2cc(-c3cnc4[nH]ccc4c3)[nH]c2c1 | 79
4 | Cc1ccc2cc(-c3ccc(-n4ccnc4)nc3)[nH]c2c1 | 245

From patent publication US20110076230A1, “Novel Substituted Indoles” (priority 2008, published 2011)
